Test results from ChEMBL document CHEMBL1154617, “Synthesis and biological evaluation of 17beta-hydroxysteroid dehydrogenase type 1 (17beta-HSD1) inhibitors based on a thieno[2,3-d]pyrimidin-4(3H)-one core” (J Med Chem, 2009).
Calls of active or inactive are those of the source. The calls are words filed in the database; no cut-off is given here.

Columns and labels:
[1] = target: T1, 17-beta-hydroxysteroid dehydrogenase type 1 (Homo sapiens) (UniProt P14061); assay: Inhibition of human recombinant 17beta-HSD1 at 0.1 uM by cell-free assay; type: single protein
T1 sequence (whole entry): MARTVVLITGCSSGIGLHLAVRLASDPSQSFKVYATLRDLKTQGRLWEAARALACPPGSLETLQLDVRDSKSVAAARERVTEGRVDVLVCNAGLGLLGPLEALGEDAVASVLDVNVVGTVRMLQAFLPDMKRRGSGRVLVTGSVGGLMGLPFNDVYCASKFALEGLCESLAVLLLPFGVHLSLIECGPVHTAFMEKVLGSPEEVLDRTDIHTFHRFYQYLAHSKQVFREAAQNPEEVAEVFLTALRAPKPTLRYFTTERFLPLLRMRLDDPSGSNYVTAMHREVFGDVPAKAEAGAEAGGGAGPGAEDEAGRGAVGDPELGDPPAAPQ

[2] = target: T2, 17-beta-hydroxysteroid dehydrogenase type 2 (Homo sapiens) (UniProt P37059); assay: Inhibition of human recombinant 17beta-HSD2 at 0.1 uM by cell-free assay
T2 sequence (whole entry): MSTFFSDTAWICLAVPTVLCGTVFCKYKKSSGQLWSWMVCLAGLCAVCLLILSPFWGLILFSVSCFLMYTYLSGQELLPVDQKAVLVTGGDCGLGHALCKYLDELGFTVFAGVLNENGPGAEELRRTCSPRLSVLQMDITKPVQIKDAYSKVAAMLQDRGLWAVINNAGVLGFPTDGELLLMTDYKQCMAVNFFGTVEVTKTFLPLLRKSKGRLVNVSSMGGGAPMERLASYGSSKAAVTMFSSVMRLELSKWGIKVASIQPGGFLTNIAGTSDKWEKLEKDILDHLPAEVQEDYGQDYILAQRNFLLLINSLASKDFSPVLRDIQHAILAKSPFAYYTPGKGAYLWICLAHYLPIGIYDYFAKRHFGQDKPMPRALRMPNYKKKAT

[3] = target: T1, 17-beta-hydroxysteroid dehydrogenase type 1 (Homo sapiens); assay: Inhibition of human recombinant 17beta-HSD1 expressed in human MCF7 cells at 0.1 uM by cell-based assay
Estrogen receptor beta = Estrogen receptor beta (Homo sapiens, UniProt Q92731); assay: Activity at human recombinant ERbeta by fluorescence polarization assay
Chain of Estrogen receptor beta (Q92731 whole entry): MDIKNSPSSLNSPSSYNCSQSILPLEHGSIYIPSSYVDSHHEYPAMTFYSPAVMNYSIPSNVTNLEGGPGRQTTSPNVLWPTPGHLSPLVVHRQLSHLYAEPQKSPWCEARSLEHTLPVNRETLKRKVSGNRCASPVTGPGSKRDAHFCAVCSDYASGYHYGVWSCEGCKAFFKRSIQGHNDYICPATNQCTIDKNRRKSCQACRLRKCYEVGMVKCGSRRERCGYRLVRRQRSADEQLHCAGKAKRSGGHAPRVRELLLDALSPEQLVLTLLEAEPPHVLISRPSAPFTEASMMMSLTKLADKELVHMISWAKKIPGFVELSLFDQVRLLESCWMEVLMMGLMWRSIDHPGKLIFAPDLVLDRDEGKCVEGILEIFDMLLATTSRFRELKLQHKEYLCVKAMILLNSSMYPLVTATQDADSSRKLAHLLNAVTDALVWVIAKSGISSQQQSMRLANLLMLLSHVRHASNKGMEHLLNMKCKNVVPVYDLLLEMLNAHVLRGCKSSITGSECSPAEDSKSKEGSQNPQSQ

[4] = target: T2, 17-beta-hydroxysteroid dehydrogenase type 2 (Homo sapiens); assay: Inhibition of human recombinant 17beta-HSD2 at 1 uM by cell-free assay
[5] = target: T1, 17-beta-hydroxysteroid dehydrogenase type 1 (Homo sapiens); assay: Inhibition of human recombinant 17beta-HSD1 expressed in human MCF7 cells at 1 uM by cell-based assay
Estrogen receptor = target: T3, Estrogen receptor (Homo sapiens, UniProt P03372); assay: Activity at human recombinant ERalpha by fluorescence polarization assay
T3 sequence (P03372 whole entry): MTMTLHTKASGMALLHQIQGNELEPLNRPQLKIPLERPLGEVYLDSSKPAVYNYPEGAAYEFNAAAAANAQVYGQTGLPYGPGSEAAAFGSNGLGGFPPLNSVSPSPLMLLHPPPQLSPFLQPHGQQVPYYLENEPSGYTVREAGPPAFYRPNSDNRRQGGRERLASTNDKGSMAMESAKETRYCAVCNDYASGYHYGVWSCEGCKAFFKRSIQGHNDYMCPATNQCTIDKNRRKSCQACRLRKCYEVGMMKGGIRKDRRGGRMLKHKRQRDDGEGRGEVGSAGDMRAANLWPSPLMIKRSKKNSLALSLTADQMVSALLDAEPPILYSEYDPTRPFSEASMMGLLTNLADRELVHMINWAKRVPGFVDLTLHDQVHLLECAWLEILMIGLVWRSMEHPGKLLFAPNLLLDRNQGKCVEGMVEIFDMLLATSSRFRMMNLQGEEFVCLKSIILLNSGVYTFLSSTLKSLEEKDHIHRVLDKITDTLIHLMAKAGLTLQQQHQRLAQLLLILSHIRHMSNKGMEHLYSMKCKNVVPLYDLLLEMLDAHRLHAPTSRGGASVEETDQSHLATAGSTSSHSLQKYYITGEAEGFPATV

[6] = target: T1, 17-beta-hydroxysteroid dehydrogenase type 1 (Homo sapiens); assay: Inhibition of human recombinant 17beta-HSD1 at 1 uM by cell-free assay; type: single protein

SMILES	inhibition [1]	inhibition [2]	inhibition [3]	EC50 (Estrogen receptor beta)	inhibition [4]	inhibition [5]	EC50 (Estrogen receptor)	inhibition [6]
O=Cc1ccc2c(sc3nc4n(c(=O)c32)CCCCC4)c1Sc1ccccc1	26.9%	inactive	15.1%	> 1000 nM	inactive	87.9%	> 1000 nM	88.4%
Cc1ccc(SC2=C(C=O)CCc3c2sc2nc4n(c(=O)c32)CCCCC4)cc1	47%	8.2%	18.9%		32.1%	69.4%		80.6%
O=CC1=C(Sc2ccc(O)cc2)c2sc3nc4n(c(=O)c3c2CC1)CCCCC4	58.5%	21.7%	36.5%		22.6%	76.8%		1.8%
CCCSC1=C(C=O)CCc2c1sc1nc3n(c(=O)c21)CCC3	16.7%							67.2%
O=CC1=C(Sc2ccc(F)cc2)c2sc3nc4n(c(=O)c3c2CC1)CCCCC4	87.4%	17%	17.3%		27.4%	27.4%		91.9%
CCCSc1c(C=O)ccc2c1sc1nc3n(c(=O)c12)CCCCC3	83%	3.8%	28.5%		12.7%	86.4%		90.6%
O=c1c2c(nc3n1CCCCC3)sc1c(Sc3ccccc3)c(CO)ccc12	80.5%	30.8%	30.5%		37.3%	46.9%		87.5%
O=CC1=C(Sc2ccc(C(=O)O)cc2)c2sc3nc4n(c(=O)c3c2CC1)CCCCC4	3.8%							22.1%
O=CC1=C(SCc2ccccc2)c2sc3nc4n(c(=O)c3c2CC1)CCCCC4	7.2%	25.8%			62.2%			30.7%
CCCSC1=C(C=O)CCc2c1sc1ncn(C)c(=O)c21	24.3%	12.9%	19.5%		17.4%	48.2%		55.8%
O=CC1=C(Sc2ccccc2)c2sc3nc4n(c(=O)c3c2CC1)CCCCC4	63.3%			> 10000 nM			> 10000 nM	85.1%
O=CC1=C(Sc2ccc3ccccc3c2)c2sc3nc4n(c(=O)c3c2CC1)CCCCC4	55.2%	19%			40.1%			64%
COc1ccc(SC2=C(C=O)CCc3c2sc2nc4n(c(=O)c32)CCCCC4)cc1	89%	8.6%	24.6%		53%	71.6%		89.8%
O=CC1=C(Sc2ccncc2)c2sc3nc4n(c(=O)c3c2CC1)CCCCC4	79.2%	10.5%			13.7%			87.2%
O=CC1=C(SC2CCCCC2)c2sc3nc4n(c(=O)c3c2CC1)CCCCC4	51.2%	inactive	32.7%	> 1000 nM	inactive	63.9%	> 10000 nM	82.2%
O=CC1=C(SCC(=O)N2CCOCC2)c2sc3nc4n(c(=O)c3c2CC1)CCCCC4	4%	3.9%	3.9%		3.1%	39.4%		7.8%
CCCSc1c(CO)ccc2c1sc1nc3n(c(=O)c12)CCCCC3	69%	13.6%	35.6%		20.6%	78.6%		85.9%

The next lines start with the values.

inhibition [1]	inhibition [2]	inhibition [3]	EC50 (Estrogen receptor beta)	inhibition [4]	inhibition [5]	EC50 (Estrogen receptor)	inhibition [6]	SMILES
3.3%		19.7%			38.6%		26.1%	O=CC1=C(Cl)c2sc3nc4n(c(=O)c3c2CC1)CCC4
14.5%		25.9%			36.2%		39.9%	O=c1c2c3c(sc2nc2n1CCCCC2)C(Cl)=C(CO)CC3
63.3%	31.4%	15.6%	> 1000 nM	36.9%	57%	> 1000 nM	74.7%	CCCSC1=C(C=O)CCc2c1sc1nc3n(c(=O)c21)CCCCCC3
46.6%	inactive	40.3%	> 1000 nM	inactive	80.5%	> 10000 nM	87.4%	O=CC1=C(SC2CCCC2)c2sc3nc4n(c(=O)c3c2CC1)CCCCC4
64.7%	inactive	71.9%		inactive	100%		92.9%	CC(C)SC1=C(C=O)CCc2c1sc1nc3n(c(=O)c21)CCCCC3
0.1%	19.7%			41.1%			2.9%	CCCSC1=C(/C=N/O)CCc2c1sc1nc3n(c(=O)c21)CCCCC3
1.1%		8.4%			8.9%		13.9%	CCCSC1=C(/C=C/C(C)=O)CCc2c1sc1nc3n(c(=O)c21)CCCCC3
49.8%	inactive	33.6%	> 1000 nM	1.2%	87%	> 10000 nM	89.6%	CC(C)(C)SC1=C(C=O)CCc2c1sc1nc3n(c(=O)c21)CCCCC3
0.3%							2.8%	O=CC1=C(SCCC(=O)O)c2sc3nc4n(c(=O)c3c2CC1)CCCCC4
85.6%	32.6%	18.2%		71.6%	90.1%		91.3%	O=CC1=C(Sc2ccccc2O)c2sc3nc4n(c(=O)c3c2CC1)CCCCC4
72.9%	inactive	74%	> 1000 nM	5.3%	100%	> 1000 nM	95.2%	CCCSC1=C(C=O)CCc2c1sc1nc3n(c(=O)c21)CCCCC3
4.1%		14%			15.1%		17.9%	O=c1c2c3c(sc2nc2n1CCCCC2)C(Cl)=C(/C=N/O)CC3
8%		10%			45.9%		23.2%	O=c1c2c3c(sc2nc2n1CCCCC2)CCCC3
inactive		6.3%			35.8%		3.8%	O=C1CCCc2c1sc1nc3n(c(=O)c21)CCCC3
						> 10000 nM		O=CC1=C(Cl)c2sc3nc4n(c(=O)c3c2CCC1)CCCCC4
35.2%	inactive	43.9%		inactive	100%		87%	CCCSC1=C(C=O)CCCc2c1sc1nc3n(c(=O)c21)CCCCC3
94.2%	40.9%	52.6%	> 1000 nM	48.1%	84.1%	> 1000 nM	96.5%	O=CC1=C(Sc2cccc(O)c2)c2sc3nc4n(c(=O)c3c2CC1)CCCCC4
67.6%	inactive	54.1%		7.8%	100%		93.4%	CCCCSC1=C(C=O)CCc2c1sc1nc3n(c(=O)c21)CCCCC3
71.3%	inactive	66.1%		2%	100%		94.5%	CCSC1=C(C=O)CCc2c1sc1nc3n(c(=O)c21)CCCCC3
